The source of these data is PubChem BioAssay (NCI).

Experiment in all cases: NCI tumour cell line growth inhibition, 48 h
Assay [1] has as its system COLO 205 colon.
For assay [2], the system named is HCC-2998 colon.
The subject of assay [3] is IGROV1 ovarian.
For assay [4], the system named is MALME-3M melanoma.
The test system of assay [5] is MCF7 breast.
Assay [6] deals with MOLT-4 leukemia.
The test system of assay [7] is NCI-H522 lung.
Assay [8] relates to RXF 393 renal.
For assay [9], the system named is SK-OV-3 ovarian.
The test system of assay [10] is SW-620 colon.

Molecules are shown by their SMILES. Several values for one entry are separate records, joined by “and”; a condition that tells them apart may be missing. Equal entries are not always repeated.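 Each compound was tested at five concentrations against cells in 96-well plates for 48 hours. GI50: concentration for 50% inhibition of growth. The concentration for full growth arrest is given as TGI.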

With `CC(C)=CCC/C(C)=C/CCC1(C)C=Cc2c(c3ccccc3oc2=O)O1` (stereo not drawn), the TGI in [1] is 35.5 µM; in assay [2] it was 31.8 µM; in assay [3], 30.8 µM; in [4] it was 43.7 µM; in assay [5], 30.5 µM; in assay [6], more than 72.7 µM. The TGI stood at 29.3 µM in assay [7], 27.8 µM in assay [8], 50.8 µM in assay [9] and 33.7 µM in assay [10].

On to `OC1COC(OCc2ccccc2)C(O)C1O` (stereo not drawn), for which the TGI in [1], in assay [2], in assay [3], in assay [4], in assay [5] and in [6] was more than 100 µM each time. The TGI in [7], in assay [8], in assay [9] and in assay [10] was more than 100 µM each time.

With `C/C(=N\NC(=S)Nc1ccc([N+](=O)[O-])cc1)c1nc2ncccc2[nH]1`, the TGI in assay [1] is 23.1 µM; in assay [2] it was 10.8 µM; in assay [3], 4.75 µM; in assay [4] it was 18.5 µM; in [5], 2.38 µM; in assay [6], 13.3 µM. Moreover, the TGI in assay [7] is 3.25 µM; in [9], 14.7 µM; in assay [10], more than 100 µM.

As to `O=C(O)CCCc1ccccc1`, the GI50 in [1] is 363 µM and > 1000 µM; in assay [2], more than 1000 µM; in [3] it was 412 µM and > 1000 µM; in assay [5] it was 160 µM and > 1000 µM; in assay [6], more than 1000 µM; in assay [7], more than 1000 µM. Further, the GI50 in assay [8] was more than 1000 µM; in [9] it was 522 µM and > 1000 µM; in assay [10] it was 333 µM and > 1000 µM. Also, the TGI is more than 1000 µM in [1]; 517 µM and > 1000 µM in assay [2]; more than 1000 µM in assay [3]; 121 µM and > 1000 µM in [4]; more than 1000 µM in [5]; 394 µM and > 1000 µM in [6]. Moreover, the TGI in assay [7] is 634 µM and > 1000 µM; in [8] it was 604 µM and > 1000 µM; in assay [9], more than 1000 µM; in assay [10] it was more than 1000 µM.

As for `Cc1cn(C2CC(O)C(Cn3nncc3Cn3ncc(=O)[nH]c3=O)O2)c(=O)[nH]c1=O` (stereo not drawn), the TGI in assay [1], in [2], in assay [3], in assay [4], in [5] and in assay [6] was more than 100 µM throughout. For the same compound, the TGI in assay [8], in [9] and in [10] was more than 100 µM in each case.

On to `C=CCNC(=O)CN(CC(=O)OC)C1CCCCC1N(CC(=O)OC)CC(=O)OC` (stereo not drawn), for which the TGI in [2], in [3], in assay [4], in [5], in [6] and in assay [7] was more than 100 µM in each case. Besides, the TGI in assay [8], in assay [9] and in [10] was more than 100 µM in each case.

With `O=C(O)C12CC3CC(C1)C2C=C3P(=O)(O)O` (stereo not drawn), the TGI in [1], in assay [2], in assay [3], in [4], in [6] and in assay [7] was more than 100 µM in each case. Further, the TGI in assay [8], in assay [9] and in assay [10] was more than 100 µM in each case.

Take `COCCOCOC(C)(C)[C@H](CCO)O[Si](c1ccccc1)(c1ccccc1)C(C)(C)C`: the TGI is 33.9 µM in [1]; 18.9 µM in assay [2]; 22.9 µM in [3]; 30.5 µM in [4]; 22.9 µM in assay [6]; 15.4 µM in assay [7]. Further, the results for the TGI in assay [8], in [9] and in [10] were 17.8 µM, 26.5 µM and 25.2 µM, respectively.

For `O=C1c2ccccc2C(=O)c2c1cc1c(c2[N+](=O)[O-])OCO1`, the GI50 in assay [1] was 3.46 µM; in assay [2] it was 1.5 µM; in assay [3], 1.21 µM; in assay [4] it was 2.81 µM; in assay [5], 1 µM; in [6] it was 0.794 µM. Further, the GI50 in assay [7] was 2.01 µM; in assay [8], 0.506 µM; in assay [10] it was 0.68 µM. Moreover, the TGI in assay [1] is 16.8 µM; in [2], 4 µM; in [3] it was 7.62 µM; in [4], 8.9 µM; in [5] it was 7.29 µM; in assay [6] it was more than 100 µM. Also, the TGI in [7] was determined as 4.68 µM; in assay [8] it was 2.04 µM; in [10] it was 11.5 µM.

In the case of `CC(C)=CC(=O)OC1C2C(C)=CC(O)C(O)C2(C)C2C3(O)OCC24C(CC(=O)OC14)C(C)C3O` (stereo not drawn), the TGI in [1] is 2.77 µM; in assay [2], 0.572 µM; in [3], 0.706 µM; in assay [4], 0.0844 µM; in assay [5], 0.107 µM; in [6], 1.31 µM. Further, the values for the TGI in assay [7], in assay [8] and in assay [10] were 0.103 µM, 0.933 µM and 4.81 µM, respectively.

Take `COc1cc(/C=C/C2=C(C#N)C(=O)OC2(C)C)ccc1O`: the TGI in assay [1] is more than 100 µM; in assay [2], more than 100 µM; in [3] it was more than 100 µM; in assay [4], more than 100 µM; in [6] it was more than 100 µM; in assay [7], 44.4 µM. The TGI in assay [8], in [9] and in assay [10] was more than 100 µM each time.

For the compound `CCCCCCCCCCCCC(O)C(=O)O` (stereo not drawn), the TGI in assay [1], in assay [2], in assay [3], in [4], in assay [5] and in [6] was more than 100 µM throughout. Also, the TGI in assay [7], in assay [9] and in assay [10] was more than 100 µM in each case.

With `COc1cc(C(=O)C2CC3(CCC2(O)c2cc(OC)c(OC)c(OC)c2)CC(=O)Nc2ccccc2C3=O)cc(OC)c1OC` (stereo not drawn), the TGI in assay [1] was 62.6 µM; in assay [2], more than 100 µM; in assay [3] it was more than 100 µM; in assay [4], more than 100 µM; in assay [5], more than 100 µM; in [6], more than 100 µM. Moreover, the TGI in [8], in assay [9] and in [10] was more than 100 µM in each case.

`c1ccc2cc3c(cc2c1)OP1(Oc2cccc4cccnc24)(O3)Oc2cc3ccccc3cc2O1`: the TGI in assay [1] was more than 100 µM; in assay [2], 27.2 µM; in [3], more than 100 µM; in [4] it was more than 76.8 µM; in assay [5] it was more than 100 µM; in [7], 35.4 µM. Moreover, the figures for the TGI in assay [8], in assay [9] and in [10] were more than 100 µM, more than 96.6 µM and more than 50.2 µM, respectively.

Regarding `Nc1n[nH]c(CCCCCCCc2nc(N)n[nH]2)n1`, the TGI in [2], in assay [4], in [6], in assay [7], in assay [8] and in assay [9] was more than 100 µM throughout.

As to `Cc1c(C2=NN=C(N=Nc3c(O)cccc3O)/C2=C/c2ccccc2)c(=O)n(-c2ccccc2)n1C`, the TGI in assay [1], in [2], in assay [3], in assay [4], in [5] and in assay [6] was more than 100 µM each time. The TGI in assay [7], in assay [8], in assay [9] and in [10] was more than 100 µM in each case.
